Measurements: patent US8461120B2, “Macrocyclic compounds pounds and methods of use thereof” (Synovo GmbH, priority 2004, dated 2013)

Columns and labels:
Type in all cases: cell-based
IFNg = test: Suppression of pro-inflammatory responses in isolated cells: IFNg; details: for activity at 8 µM: read-out: IFNg (% control) at 8 μM
NO = test: Suppression of pro-inflammatory responses in isolated cells: NO; details: for activity at 8 µM: read-out: NO (% control) at 8 μM; for Potency in NO suppression vs. Dexamethasone: relative to Dexamethasone
KC = test: LPS-stimulated mouse whole blood, production of the chemotactic cytokine KC (bioplex); details: Neutrophil, 1.5 h; fresh mouse whole blood stimulated by LPS, incubated 90 minutes; read-out: EC50 of modulation of the neutrophil migration factor KC
Procedure: FIG. 2. is a graph showing the response of murine blood cells to varying concentrations of a compound of the invention (see Example 31) based on the production of the chemotactic cytokine “KC”. Fresh mouse whole blood was stimulated by LPS and incubated for 90 minutes. KC was quantified by bioplex.

## C[C@@H]1C[C@H]2[C@@H]3CCC4=CC(=O)C=C[C@]4(C)[C@@]3(F)[C@@H](O)C[C@]2(C)[C@@]1(O)C(=O)CO [Dexamethasone, reference compound]
IFNg
  activity at 8 µM: 4.3%
NO
  activity at 8 µM: 3.4%

## CC[C@H]1OC(=O)[C@H](C)[C@@H](O[C@H]2C[C@@](C)(OC)[C@@H](O)[C@H](C)O2)[C@H](C)[C@@H](O[C@@H]2O[C@H](C)CC(N(C)CC(O)CNCCCCN)[C@H]2O)[C@](C)(O)C[C@@H](C)CN(C)[C@H](C)[C@@H](O)[C@]1(C)O (stereo partly shown) [Example 29]
NO
  Potency in NO suppression vs. Dexamethasone: 0.6

## CCCCCCCCNCC(O)CN(C)C1C[C@@H](C)O[C@@H](O[C@@H]2[C@@H](C)[C@H](O[C@H]3C[C@@](C)(OC)[C@@H](O)[C@H](C)O3)[C@@H](C)C(=O)O[C@H](CC)[C@@](C)(O)[C@H](O)[C@@H](C)N(C)C[C@H](C)C[C@@]2(C)O)[C@@H]1O (stereo partly shown) [Example 31]
KC
  EC50: ~100 nM
IFNg
  activity at 8 µM: 4.4%
NO
  activity at 8 µM: 4.7%

## CCCCCNCC(O)CN(C)C1C[C@@H](C)O[C@@H](O[C@@H]2[C@@H](C)[C@H](O[C@H]3C[C@@](C)(OC)[C@@H](O)[C@H](C)O3)[C@@H](C)C(=O)O[C@H](CC)[C@@](C)(O)[C@H](O)[C@@H](C)N(C)C[C@H](C)C[C@@]2(C)O)[C@@H]1O (stereo partly shown) [Example 32]
IFNg
  activity at 8 µM: 3.7%
NO
  activity at 8 µM: 6.8%

## CCCCC(CC)CNCC(O)CN(C)C1C[C@@H](C)O[C@@H](O[C@@H]2[C@@H](C)[C@H](O[C@H]3C[C@@](C)(OC)[C@@H](O)[C@H](C)O3)[C@@H](C)C(=O)O[C@H](CC)[C@@](C)(O)[C@H](O)[C@@H](C)N(C)C[C@H](C)C[C@@]2(C)O)[C@@H]1O (stereo partly shown) [Example 33]
IFNg
  activity at 8 µM: 3.8%
NO
  activity at 8 µM: 3.2%

## CC[C@H]1OC(=O)[C@H](C)[C@@H](O[C@H]2C[C@@](C)(OC)[C@@H](O)[C@H](C)O2)[C@H](C)[C@@H](O[C@@H]2O[C@H](C)CC(N(C)CC(O)CNCC(OC)OC)[C@H]2O)[C@](C)(O)C[C@@H](C)CN(C)[C@H](C)[C@@H](O)[C@]1(C)O (stereo partly shown) [Example 35]
NO
  Potency in NO suppression vs. Dexamethasone: 0.5

## CC[C@H]1OC(=O)[C@H](C)[C@@H](O[C@H]2C[C@@](C)(OC)[C@@H](O)[C@H](C)O2)[C@H](C)[C@@H](O[C@@H]2O[C@H](C)CC(N(C)CC(O)CNc3ncc(C)s3)[C@H]2O)[C@](C)(O)C[C@@H](C)CN(C)[C@H](C)[C@@H](O)[C@]1(C)O (stereo partly shown) [Example 41]
NO
  Potency in NO suppression vs. Dexamethasone: 0.5

## CC[C@H]1OC(=O)[C@H](C)[C@@H](O[C@H]2C[C@@](C)(OC)[C@@H](O)[C@H](C)O2)[C@H](C)[C@@H](O[C@@H]2O[C@H](C)CC(N(C)CC(O)CNc3cc(C)ccn3)[C@H]2O)[C@](C)(O)C[C@@H](C)CN(C)[C@H](C)[C@@H](O)[C@]1(C)O (stereo partly shown) [Example 42]
NO
  Potency in NO suppression vs. Dexamethasone: 0.8

## CC[C@H]1OC(=O)[C@H](C)[C@@H](O[C@H]2C[C@@](C)(OC)[C@@H](O)[C@H](C)O2)[C@H](C)[C@@H](O[C@@H]2O[C@H](C)CC(N(C)CC(O)CN3CCC(O)CC3)[C@H]2O)[C@](C)(O)C[C@@H](C)CN(C)[C@H](C)[C@@H](O)[C@]1(C)O (stereo partly shown) [Example 47]
NO
  Potency in NO suppression vs. Dexamethasone: 0.5

## CCCCN(CCCC)CCCNCC(O)CN(C)C1C[C@@H](C)O[C@@H](O[C@@H]2[C@@H](C)[C@H](O[C@H]3C[C@@](C)(OC)[C@@H](O)[C@H](C)O3)[C@@H](C)C(=O)O[C@H](CC)[C@@](C)(O)[C@H](O)[C@@H](C)N(C)C[C@H](C)C[C@@]2(C)O)[C@@H]1O (stereo partly shown) [Example 49]
IFNg
  activity at 8 µM: 4.3%
NO
  activity at 8 µM: 48.2%

## CCCN(CCO)CC(O)CN(C)C1C[C@@H](C)O[C@@H](O[C@@H]2[C@@H](C)[C@H](O[C@H]3C[C@@](C)(OC)[C@@H](O)[C@H](C)O3)[C@@H](C)C(=O)O[C@H](CC)[C@@](C)(O)[C@H](O)[C@@H](C)N(C)C[C@H](C)C[C@@]2(C)O)[C@@H]1O (stereo partly shown) [Example 50]
IFNg
  activity at 8 µM: 4%
NO
  activity at 8 µM: 3.9%

## CC[C@H]1OC(=O)[C@H](C)[C@@H](O[C@H]2C[C@@](C)(OC)[C@@H](O)[C@H](C)O2)[C@H](C)[C@@H](O[C@@H]2O[C@H](C)CC(N(C)CC(O)CN3CCN(C=O)CC3)[C@H]2O)[C@](C)(O)C[C@@H](C)CN(C)[C@H](C)[C@@H](O)[C@]1(C)O (stereo partly shown) [Example 56]
NO
  Potency in NO suppression vs. Dexamethasone: 0.6

## CC[C@H]1OC(=O)[C@H](C)[C@@H](O[C@H]2C[C@@](C)(OC)[C@@H](O)[C@H](C)O2)[C@H](C)[C@@H](O[C@@H]2O[C@H](C)CC(N(C)CC(O)COc3cccc(O)c3)[C@H]2O)[C@](C)(O)C[C@@H](C)CN(C)[C@H](C)[C@@H](O)[C@]1(C)O (stereo partly shown) [Example 59]
IFNg
  activity at 8 µM: 96.9%
NO
  activity at 8 µM: 99.2%

## CC[C@H]1OC(=O)[C@H](C)[C@@H](O[C@H]2C[C@@](C)(OC)[C@@H](O)[C@H](C)O2)[C@H](C)[C@@H](O[C@@H]2O[C@H](C)CC(N(C)CC(O)COc3ccc(OC)cc3)[C@H]2O)[C@](C)(O)C[C@@H](C)CN(C)[C@H](C)[C@@H](O)[C@]1(C)O (stereo partly shown) [Example 60]
IFNg
  activity at 8 µM: 5.7%
NO
  activity at 8 µM: 33.7%

## CC[C@H]1OC(=O)[C@H](C)[C@@H](O[C@H]2C[C@@](C)(OC)[C@@H](O)[C@H](C)O2)[C@H](C)[C@@H](O[C@@H]2O[C@H](C)CC(N(C)CC(O)COc3ccc(B(O)O)cc3)[C@H]2O)[C@](C)(O)C[C@@H](C)CN(C)[C@H](C)[C@@H](O)[C@]1(C)O (stereo partly shown) [Example 61]
IFNg
  activity at 8 µM: 15.6%
NO
  activity at 8 µM: 74.2%

## CC[C@H]1OC(=O)[C@H](C)[C@@H](O[C@H]2C[C@@](C)(OC)[C@@H](O)[C@H](C)O2)[C@H](C)[C@@H](O[C@@H]2O[C@H](C)CC(N(C)CC(O)COc3ccc(C(=O)OC)cc3)[C@H]2O)[C@](C)(O)C[C@@H](C)CN(C)[C@H](C)[C@@H](O)[C@]1(C)O (stereo partly shown) [Example 62]
IFNg
  activity at 8 µM: 5.3%
NO
  activity at 8 µM: 63.4%

## CC[C@H]1OC(=O)[C@H](C)[C@@H](O[C@H]2C[C@@](C)(OC)[C@@H](O)[C@H](C)O2)[C@H](C)[C@@H](O[C@@H]2O[C@H](C)CC(N(C)CC(O)COC(=O)CNC(=O)OC(C)(C)C)[C@H]2O)[C@](C)(O)C[C@@H](C)CN(C)[C@H](C)[C@@H](O)[C@]1(C)O (stereo partly shown) [Example 63]
IFNg
  activity at 8 µM: 4.4%
NO
  activity at 8 µM: 3.9%

## CC[C@H]1OC(=O)[C@H](C)[C@@H](O[C@H]2C[C@@](C)(OC)[C@@H](O)[C@H](C)O2)[C@H](C)[C@@H](O[C@@H]2O[C@H](C)CC(N(C)CC(O)COC(=O)c3nccc4ccccc34)[C@H]2O)[C@](C)(O)C[C@@H](C)CN(C)[C@H](C)[C@@H](O)[C@]1(C)O (stereo partly shown) [Example 65]
IFNg
  activity at 8 µM: 30.9%
NO
  activity at 8 µM: 77.6%

## CCC1OC(=O)C(C)C(OC2CC(C)(OC)C(O)C(C)O2)C(C)C(OC2OC(C)CC(N(C)CC3CO3)C2O)C(C)(O)CC(C)C(=O)C(C)C(O)C1(C)O (stereo not shown) [Example 67, 3′-N-demethyl-3′-N-(oxiranylmethyl)erythromycin]
IFNg
  IFNg (% control) at 8 μM: 6.0 % control
NO
  NO (% control) at 8 μM: 70.0 % control

## CC[C@H]1OC(=O)[C@H](C)[C@@H](OC2C[C@@](C)(OC)[C@@H](O)[C@H](C)O2)C[C@@H](OC2O[C@H](C)C[C@H](N(C)CC(O)CNc3ncc(C)s3)[C@H]2O)[C@](C)(O)C[C@@H](C)C(=O)[C@H](C)[C@@H](O)[C@]1(C)O (stereo partly shown) [Example 68]
IFNg
  activity at 8 µM: 4.3%
NO
  activity at 8 µM: 2.9%

## CC[C@H]1OC(=O)[C@H](C)C2(O)O[C@@](C)(C[C@@H](C)CN(C)[C@H](C)[C@@H](O)[C@]1(C)O)[C@H](O[C@@H]1O[C@H](C)CC(N(C)CC(O)COC(=O)c3cnc4ccccc4c3)C1O)[C@H]2C (stereo partly shown) [Example 75]
IFNg
  activity at 8 µM: 88.8%
NO
  activity at 8 µM: 96.8%

## CC[C@H]1OC(=O)[C@H](C)[C@@H](OC2CC(C)(OC)C(O)C(C)O2)[C@H](C)[C@@H](OC2OC(C)CC(NC)C2O)C(C)(O)C[C@@H](C)C(=O)[C@H](C)[C@@H](O)C1(C)O (stereo partly shown) [desmethyl erythromycin, reference compound]
IFNg
  IFNg (% control) at 8 μM: 6.3 % control
NO
  NO (% control) at 8 μM: 37.1 % control

## descladinosyltetraacetal azithromycin
NO
  Potency in NO suppression vs. Dexamethasone: 0.6
